Measurements reported in patent US8815857B2 (Boehringer Ingelheim International GmbH, priority 2011, dated 2014).
≈ marks a conversion by molar mass, not a printed value.

Key:
[1] = target: T1, Recombinant human soluble guanylate cyclase (sGC), alpha 1 / beta 1 subunits, heme-free (Homo sapiens, UniProt Q02108+Q02153); assay: Molecular assay: cGMP formation by heme-free recombinant sGC (CisBio cGMP detection kit); type: biochemical; details: 300 pM heme-free sGC, 37° C., 60 min, cGMP readout; read-out: EC50 nM, Activity of Compounds in Molecular Assay
T1 construct: histidine tag (C); made in house; host or cells: Sf9 insect cells (baculovirus coinfection)
T1 sequence (Q02108 1-690 partner): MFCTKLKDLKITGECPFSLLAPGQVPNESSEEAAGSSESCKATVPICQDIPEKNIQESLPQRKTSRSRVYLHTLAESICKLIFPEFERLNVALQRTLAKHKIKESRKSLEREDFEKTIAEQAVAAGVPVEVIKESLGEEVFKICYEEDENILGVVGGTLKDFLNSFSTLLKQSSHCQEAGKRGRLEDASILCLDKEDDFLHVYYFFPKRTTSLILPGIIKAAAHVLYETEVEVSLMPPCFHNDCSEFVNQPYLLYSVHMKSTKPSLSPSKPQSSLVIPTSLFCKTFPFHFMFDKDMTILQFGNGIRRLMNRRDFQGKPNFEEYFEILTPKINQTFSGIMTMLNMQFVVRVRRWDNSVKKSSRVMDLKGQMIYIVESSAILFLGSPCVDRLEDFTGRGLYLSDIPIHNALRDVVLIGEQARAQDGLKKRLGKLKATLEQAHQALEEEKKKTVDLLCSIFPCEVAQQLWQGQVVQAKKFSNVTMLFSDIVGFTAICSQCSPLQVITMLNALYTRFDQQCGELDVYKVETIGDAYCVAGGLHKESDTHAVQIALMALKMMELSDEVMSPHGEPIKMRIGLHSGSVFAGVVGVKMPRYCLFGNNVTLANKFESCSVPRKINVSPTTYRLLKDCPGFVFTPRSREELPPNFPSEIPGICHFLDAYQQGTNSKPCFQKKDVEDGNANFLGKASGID
T1 sequence (Q02153 1-619): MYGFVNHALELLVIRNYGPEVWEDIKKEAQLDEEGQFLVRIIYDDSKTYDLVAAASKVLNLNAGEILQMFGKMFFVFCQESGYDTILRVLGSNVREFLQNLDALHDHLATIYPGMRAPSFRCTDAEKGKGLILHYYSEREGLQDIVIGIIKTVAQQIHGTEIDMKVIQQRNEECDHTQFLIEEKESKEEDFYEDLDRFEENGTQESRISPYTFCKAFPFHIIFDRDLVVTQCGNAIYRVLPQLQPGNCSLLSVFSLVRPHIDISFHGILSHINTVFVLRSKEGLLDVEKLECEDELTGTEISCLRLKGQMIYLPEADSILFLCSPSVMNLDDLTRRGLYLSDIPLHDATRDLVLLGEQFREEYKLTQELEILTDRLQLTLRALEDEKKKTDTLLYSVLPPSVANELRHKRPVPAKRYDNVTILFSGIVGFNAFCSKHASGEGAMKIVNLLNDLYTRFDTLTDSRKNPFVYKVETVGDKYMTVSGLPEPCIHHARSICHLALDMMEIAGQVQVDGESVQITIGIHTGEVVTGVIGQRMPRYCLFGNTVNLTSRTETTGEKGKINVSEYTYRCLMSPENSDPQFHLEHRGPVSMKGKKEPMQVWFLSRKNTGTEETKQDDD
In short: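 Heme-free His-tagged sGC (Sf9-expressed, Tween 20-treated lysate) at 300 pM incubated with compounds (1% DMSO) for 60 min at 37° C in MOPS pH 6.8 with 50 nM GTP, IBMX, TCEP. cGMP quantified by HTRF against calibration curve; EC50 from combined undiluted/diluted values.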

physchem = details: kinetic from dmso stock
[2] = target: T2, human soluble guanylate cyclase alpha 1 and beta 1 subunits (sGC) stably expressed in Chinese hamster ovary cells (Homo sapiens, UniProt Q02108+Q02153); assay: sGC cellular activator assay: cGMP in CHO cells expressing human sGC, preincubated with ODQ; type: cell-based; details: 40 microM ODQ preincubation, 30 min at room temperature, presence or absence of 50% human serum not given, read-out: EC50 nM, Activity of Compounds in Cellular Assay
T2 construct: expressed in transfected cells; host or cells: Chinese hamster ovary cells, stably transfected
T2 sequence (Q02108 1-690 partner): T1 sequence (Q02108 1-690 partner)
T2 sequence (Q02153 1-619): T1 sequence (Q02153 1-619)
In short: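 EC50 values derive from HTRF cGMP measurement after test compounds act for thirty minutes at room temperature, with or without 50% human serum. Before dosing, the sGC-transfected CHO cells spend one hour with the inhibitor ODQ (40 microM) in IBMX- and 0.1% BSA-containing buffer.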

[3] = Assessment of solubility: HT solubility in pION buffer, UV spectrophotometry; details: pION system solution buffer, kinetic from dmso stock, 16-19 h incubation, 1.0% DMSO
[4] = pH 4.5, pH 4.5, aqueous buffer, Solubility (pH 4.5), pH 4.5 buffer
[5] = pH 7.4, pH 7.4, aqueous buffer, Solubility (pH 7.4), pH 7.4 buffer

SMILES | EC50 [1] | solubility (physchem; pH 4.5, aqueous buffer, Solubility (pH 4.5)) | solubility (physchem; pH 7.4, aqueous buffer, Solubility (pH 7.4)) | EC50 [2] | solubility [3, 4] | solubility [3, 5]
Cc1ccc(OCc2ccc(CN3CCN(C(=O)C4CC4)CC3)cc2C)c(-c2csc(N3CCC(C(=O)O)CC3)n2)c1 [Compound 198] | 20 nM | 37 µg/mL (≈ 62.8 µM) | > 58 µg/mL | – | – | –
Cc1ccc(OCc2ccc(CN3CCN(C(=O)C4CC4)CC3)cc2C#N)c(-c2csc(N3CCC(C(=O)O)CC3)n2)c1 [Compound 352] | 14 nM | – | – | 76 nM | 22 µg/mL (≈ 36.7 µM) | > 59 µg/mL
Cc1ccc(OCc2ccc(CN3CCC(F)CC3)cc2C)c(-c2csc(N3CCC(C(=O)O)CC3)n2)c1 [Compound 353] | 470 nM | – | – | 140 nM | > 53 µg/mL | 38 µg/mL (≈ 70.7 µM)
